# Laboratory results from patent US11197861B2, “Methods of screening BRaf inhibitors for treating cutaneous reactions” (Lutris Pharma Ltd., priority 2016, dated 2021).
# Tested on: MAPK (ERK)
# Experiment: Activation of MAPK (ERK) in human normal keratinocytes (HEKa), Western blot of phospho-ERK / total ERK
# Assay type: cell-based
# Settings: human primary keratinocytes (HEKa), 2 hours treatment
# Protocol: Human normal Keratinocyte cells HEKa were seeded in 10 cm dishes (300,000 cells/dish) and incubated overnight at 37° C., 5% CO2. Next morning, the cells were starved for 2 hours and then treated with the various inhibitors (or control treatments) for 2 hours. Post incubation the cells were lyzed with RIPA Buffer and the protein extracts were analyzed by Western-Blot for detection of phospho ERK and total ERK2, by use of suitable antibodies. Untreated and 0.1% DMSO treated cells were used as negative control. Growth factors mix (HKGS) was used as positive control (Gibco CAT #: S0015).
# Western Blot: 7.5 μg of total extract was loaded on 10% or 12% acrylamide gels. Following transfer, the membranes were blocked with TBST/5% skim milk and then incubated with Mouse anti phospho ERK (1:1000 in TBST 5% BSA, ON at 4° C.) and goat anti Mouse HRP (1:10,000 in TBST 5% BSA, 1 hour RT). The membranes were exposed using SuperSignal West Pico Chemiluminescent Substrate. The HRP was then inactivated by incubating the membranes for 1 hour with 0.5% Sodium azide. Following washes and ECL exposure in order to ensure absence of signal, the membranes were reblocked for 15 min with TBST/5% skim milk and then incubated with Rabbit anti total ERK2 (1:500 in TBST 5% BSA, ON at 4° C.), goat anti Rabbit HRP (1:5,000 in TBST 5% BSA, 1 hour RT) and finally exposed using the SuperSignal West Pico Chemiluminescent Substrate. The resulting images (films) were scanned and the signal were quantified using ImageJ software. BRaf inhibitors used in the experiments included, C-1, C-15, C-19 C-A or vemurafenib, at concentrations of 0.3 μM; 1 μM or 3 μM. ZM (ZM336372) a c-Raf inhibitor, which serves in the present experiments as a Braf activator and was used as a control.
# [1] = increasing amounts 0.3 μM, 1 μM or 3 μM, FIGS. 1-3
structure (smiles),measurement,setting,value
Cc1ccc2c(Nc3ccc(Cl)cc3)nccc2c1Nc1ncccc1-c1ncnc2[nH]cnc12 [C-1],activation of ERK (increase in relative amount of Phosphorylated ERK),"1 μM, FIGS. 4A-C",activation of ERK
same,activation of ERK (increase in relative amount of Phosphorylated ERK),[1],activation of ERK
C#Cc1cccc(Nc2nccc3c(Nc4ncccc4-c4cc(NC)ncn4)c(C)ccc23)c1 [C-15],activation of ERK (increase in relative amount of Phosphorylated ERK),"1 μM, FIGS. 4A-C",activation of ERK
same,activation of ERK (increase in relative amount of Phosphorylated ERK),[1],activation of ERK
CNc1ncc2cc(-c3c(C)ccc4c(Nc5cccc(OC(F)(F)F)c5)nc(C)nc34)ccc2n1 [C-A],activation of ERK (increase in relative amount of Phosphorylated ERK),"1 μM, FIGS. 4A-C",activation of ERK
same,activation of ERK (increase in relative amount of Phosphorylated ERK),[1],activation of ERK
CNc1ncc2cc(-c3c(C)ccc4c(Nc5cc(C(C)(C)C)nn5C)nccc34)ccc2n1 [C-19],activation of ERK (increase in relative amount of Phosphorylated ERK),"1 μM, FIGS. 4A-C",activation of ERK
same,activation of ERK (increase in relative amount of Phosphorylated ERK),[1],activation of ERK
Cc1ccc(NC(=O)c2cccc(N(C)C)c2)cc1NC(=O)c1ccc(O)cc1 [ZM 336372],activation of ERK (increase in relative amount of Phosphorylated ERK),"1 μM, FIGS. 4A-C",activation of ERK
same,activation of ERK (increase in relative amount of Phosphorylated ERK),[1],activation of ERK
